Patent US9649313B2, “Use of ITK inhibitors for the treatment of cancer” (The University of North Carolina at Chapel Hill, priority 2012, dated 2017)

Assays:
p38α = molecular target: T1, p38α (Homo sapiens, UniProt Q16539); assay: cell-free kinase assay; type: biochemical; details: single inhibitor concentration
T1 construct: purchased Carna Biosciences
From the text: (§1) We investigated the potency and selectivity of BI 10N against 56 kinases using a cell-free assay (Table 8A).
(§2) The selectivity of this inhibitor was investigated by testing the potency of the inhibitor at two concentrations with 53 kinases by Carna Biosciences (MA) (Table 2).

IKKβ = molecular target: T2, IKKβ (Homo sapiens, UniProt O14920); assay: cell-free kinase assay; type: biochemical; details: single inhibitor concentration
T2 construct: purchased Carna Biosciences
From the text: as §1, §2

EGFR = molecular target: T3, EGFR (Homo sapiens, UniProt P00533); assay: cell-free kinase assay; type: biochemical; details: single inhibitor concentration
T3 construct: purchased Carna Biosciences
From the text: as §1, §2

p70S6K = molecular target: T4, p70S6K (Homo sapiens, UniProt P23443); assay: cell-free kinase assay; type: biochemical; details: single inhibitor concentration
T4 construct: purchased Carna Biosciences
From the text: as §1, §2

EPHA2 = molecular target: T5, EPHA2 (Homo sapiens, UniProt P29317); assay: cell-free kinase assay; type: biochemical; details: single inhibitor concentration
T5 construct: purchased Carna Biosciences
From the text: as §1, §2

PKD2 = molecular target: T6, PKD2 (Homo sapiens, UniProt Q9BZL6); assay: cell-free kinase assay; type: biochemical; details: single inhibitor concentration
T6 construct: purchased Carna Biosciences
From the text: as §1, §2

ITK = molecular target: T7, ITK (Homo sapiens, UniProt Q08881); assay: cell-free kinase assay; type: biochemical
T7 construct: purchased Carna Biosciences
T7 sequence (Q08881 1-620): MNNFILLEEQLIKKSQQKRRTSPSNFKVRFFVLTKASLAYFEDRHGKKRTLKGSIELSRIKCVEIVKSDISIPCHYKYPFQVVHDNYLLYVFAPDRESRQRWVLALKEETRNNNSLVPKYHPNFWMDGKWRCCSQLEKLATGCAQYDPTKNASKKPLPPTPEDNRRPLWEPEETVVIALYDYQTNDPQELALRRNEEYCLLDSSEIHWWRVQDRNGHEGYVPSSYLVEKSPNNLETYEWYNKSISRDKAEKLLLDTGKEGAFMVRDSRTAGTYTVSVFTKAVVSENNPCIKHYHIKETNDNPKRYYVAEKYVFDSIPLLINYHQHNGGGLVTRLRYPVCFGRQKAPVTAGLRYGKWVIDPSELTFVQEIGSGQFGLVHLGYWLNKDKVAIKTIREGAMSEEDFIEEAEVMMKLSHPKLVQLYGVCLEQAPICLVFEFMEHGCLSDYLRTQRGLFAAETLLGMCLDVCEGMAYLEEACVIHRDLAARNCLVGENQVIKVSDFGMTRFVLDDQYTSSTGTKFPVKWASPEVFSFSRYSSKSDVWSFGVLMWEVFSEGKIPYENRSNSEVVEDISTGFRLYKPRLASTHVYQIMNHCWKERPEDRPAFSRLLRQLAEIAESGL
From the text: as §1, §2

[1] = system: RPMI 8322 (ITKHI) melanoma cell line; assay: single cell motility assay; type: cell-based, Human; details: 10-25 nM
From the text: (§3) FIG. 4A-4E. Effects of ITK knockdown on proliferation and motility of melanoma cells. FIG. 4A) Western of lysates of VMM 39 containing each of the four shRNA constructs using rabbit monoclonal anti ITK (Y401). FIG. 4B) The four shRNA lentiviral constructs were used to transduce three melanoma cell lines, PMWK (ITKLO), VMM 39 (ITKHI), and RPMI 8322 (ITKHI). 50,000 cells were placed into each well of a 6 well plate, which was then counted 3, 5, and 6, or 7 days after plating to assess the proliferation rates of the different cell lines. FIG. 4C) Single Cell Motility assays were performed on three different melanoma cell lines, PMWK, VMM 39, and RPMI 8322. Each melanoma cell line was transduced with the four shRNA lentiviral constructs producing a total of 12 cell lines. 10,000 cells were plated on fibronectin coated glass bottom dishes. Pictures were taken once every 40 minutes for 16 hours. FIG. 4D) Cell cycle analysis of PMWK, VMM 39, and RPMI 8322 cells that have been transduced with various shRNAs. Cells were harvested after 3 hours of incubation with 5-ethynyl-2′-deoxyuridine (EdU). EdU incorporation and DNA content with FxCycle Violet were analyzed using flow cytometry. Illustrated in this panel are the percentages of cells in G0/G1 (low DNA and EdU content), S (high EdU and low-to-medium DNA content), and G2/M (Low EdU and high DNA content). FIG. 4E) Single-cell motility analysis of PMWK, VMM 39, and RPMI 8322 that have been transduced with various shRNAs. At least 50 cells were tracked for each cell line and the average motility rate was determined. Shown with asterisks are the shRNA-transduced melanoma cell lines with significant impairment in motility (P<0.001 one-way ANOVA following Bonferroni adjustments for multiple comparisons).
(§4) FIG. 5A-5C. Effects of BI 10N inhibitor on proliferation and motility of melanoma cells. FIG. 5A) Cell motility assays were performed as described in FIG. 4A-4E; however, the inhibitor BI 10N was added to the media to decrease ITK kinase activity in parental cell lines instead of using the shRNA ITK knockdown cell lines. BI 10N was added to the media 24 hours prior to the start of the motility assay and the VivaView camera system was used to image cellular motility of the melanoma cells as described previously. […] Cells were trypsinized and counted using the Invitrogen Countess. […] The cells were counted with the Invitrogen Countess at 3, 5, and 6 or 7 days after plating to assess the proliferation rates of the different cell lines in the presence of BI 10N. […] Following 3 days of BI 10N treatment, the cells were incubated with EdU for 3 hours and were subsequently assessed for 5-ethynyl-2′-deoxyuridine (EdU) incorporation rate and DNA content with FxCycle Violet. […]

[2] = system: VMM 39 (ITKHI) melanoma cell line; assay: single cell motility assay; type: cell-based, Human; details: VMM39; 10-25 nM
From the text: as §3, §4

[3] = system: PMWK (ITKLO) melanoma cell line; assay: single cell motility assay; type: cell-based, Human
From the text: as §3, §4

T1 sequence (Q16539 whole entry): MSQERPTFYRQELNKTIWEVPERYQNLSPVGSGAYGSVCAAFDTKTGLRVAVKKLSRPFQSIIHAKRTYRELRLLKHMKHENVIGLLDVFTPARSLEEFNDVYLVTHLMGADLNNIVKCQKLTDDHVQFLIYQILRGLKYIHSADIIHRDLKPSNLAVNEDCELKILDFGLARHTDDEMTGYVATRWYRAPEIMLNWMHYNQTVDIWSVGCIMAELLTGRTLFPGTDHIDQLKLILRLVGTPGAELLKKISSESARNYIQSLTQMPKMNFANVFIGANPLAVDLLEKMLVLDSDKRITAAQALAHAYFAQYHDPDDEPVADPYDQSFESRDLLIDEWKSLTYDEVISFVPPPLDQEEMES
T3 sequence (P00533 25-1210): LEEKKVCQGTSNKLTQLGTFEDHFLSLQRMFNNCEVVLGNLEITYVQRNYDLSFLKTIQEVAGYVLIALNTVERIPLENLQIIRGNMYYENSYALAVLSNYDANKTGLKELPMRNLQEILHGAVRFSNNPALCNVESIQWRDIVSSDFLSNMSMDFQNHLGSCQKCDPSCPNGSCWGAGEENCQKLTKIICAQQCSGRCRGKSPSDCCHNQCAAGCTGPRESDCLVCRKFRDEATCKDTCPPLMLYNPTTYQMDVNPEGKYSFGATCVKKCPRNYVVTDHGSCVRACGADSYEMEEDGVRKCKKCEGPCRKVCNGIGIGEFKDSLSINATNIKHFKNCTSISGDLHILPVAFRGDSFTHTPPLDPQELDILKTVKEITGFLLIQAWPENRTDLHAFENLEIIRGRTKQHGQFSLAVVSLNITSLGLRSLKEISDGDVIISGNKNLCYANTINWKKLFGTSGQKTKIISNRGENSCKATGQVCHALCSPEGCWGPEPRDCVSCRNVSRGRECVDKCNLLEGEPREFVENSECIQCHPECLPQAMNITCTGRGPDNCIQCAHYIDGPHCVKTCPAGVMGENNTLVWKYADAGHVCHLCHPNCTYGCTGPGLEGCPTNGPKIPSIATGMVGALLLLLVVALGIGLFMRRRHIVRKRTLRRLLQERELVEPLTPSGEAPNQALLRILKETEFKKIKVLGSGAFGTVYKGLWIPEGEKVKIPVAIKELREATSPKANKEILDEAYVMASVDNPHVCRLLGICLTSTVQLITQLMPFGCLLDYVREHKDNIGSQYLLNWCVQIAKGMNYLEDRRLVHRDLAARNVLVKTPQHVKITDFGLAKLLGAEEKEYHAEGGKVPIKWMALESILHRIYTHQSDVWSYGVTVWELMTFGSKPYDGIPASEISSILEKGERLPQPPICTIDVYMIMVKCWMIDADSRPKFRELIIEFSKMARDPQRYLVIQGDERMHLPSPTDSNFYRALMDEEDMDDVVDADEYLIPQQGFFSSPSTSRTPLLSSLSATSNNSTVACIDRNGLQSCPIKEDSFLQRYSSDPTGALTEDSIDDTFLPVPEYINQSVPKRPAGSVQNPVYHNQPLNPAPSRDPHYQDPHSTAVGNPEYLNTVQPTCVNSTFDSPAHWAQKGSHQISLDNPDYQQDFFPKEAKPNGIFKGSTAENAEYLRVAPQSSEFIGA
T6 sequence (Q9BZL6 whole entry): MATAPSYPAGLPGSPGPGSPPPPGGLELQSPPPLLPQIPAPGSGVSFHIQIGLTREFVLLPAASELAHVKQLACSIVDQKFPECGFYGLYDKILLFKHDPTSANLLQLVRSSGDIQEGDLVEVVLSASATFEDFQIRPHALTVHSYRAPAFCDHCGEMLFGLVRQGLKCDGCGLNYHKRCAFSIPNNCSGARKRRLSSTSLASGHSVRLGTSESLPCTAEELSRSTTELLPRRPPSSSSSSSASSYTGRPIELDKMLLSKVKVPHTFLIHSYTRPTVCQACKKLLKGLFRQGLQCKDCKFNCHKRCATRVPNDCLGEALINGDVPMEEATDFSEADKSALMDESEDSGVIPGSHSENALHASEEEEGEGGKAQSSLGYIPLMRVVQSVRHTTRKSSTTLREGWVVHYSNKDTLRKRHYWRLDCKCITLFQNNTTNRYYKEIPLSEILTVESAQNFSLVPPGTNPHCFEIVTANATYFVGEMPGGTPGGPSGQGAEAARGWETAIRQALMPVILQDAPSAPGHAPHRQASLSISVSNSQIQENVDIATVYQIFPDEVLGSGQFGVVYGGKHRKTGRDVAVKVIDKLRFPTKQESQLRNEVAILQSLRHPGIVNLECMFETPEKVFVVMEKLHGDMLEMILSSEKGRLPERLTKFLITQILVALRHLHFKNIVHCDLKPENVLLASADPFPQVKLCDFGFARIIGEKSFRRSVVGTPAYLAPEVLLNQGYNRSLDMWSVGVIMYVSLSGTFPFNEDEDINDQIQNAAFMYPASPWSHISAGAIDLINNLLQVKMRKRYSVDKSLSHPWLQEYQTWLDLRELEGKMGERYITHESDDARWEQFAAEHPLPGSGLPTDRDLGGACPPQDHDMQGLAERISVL
T4 sequence (P23443 whole entry): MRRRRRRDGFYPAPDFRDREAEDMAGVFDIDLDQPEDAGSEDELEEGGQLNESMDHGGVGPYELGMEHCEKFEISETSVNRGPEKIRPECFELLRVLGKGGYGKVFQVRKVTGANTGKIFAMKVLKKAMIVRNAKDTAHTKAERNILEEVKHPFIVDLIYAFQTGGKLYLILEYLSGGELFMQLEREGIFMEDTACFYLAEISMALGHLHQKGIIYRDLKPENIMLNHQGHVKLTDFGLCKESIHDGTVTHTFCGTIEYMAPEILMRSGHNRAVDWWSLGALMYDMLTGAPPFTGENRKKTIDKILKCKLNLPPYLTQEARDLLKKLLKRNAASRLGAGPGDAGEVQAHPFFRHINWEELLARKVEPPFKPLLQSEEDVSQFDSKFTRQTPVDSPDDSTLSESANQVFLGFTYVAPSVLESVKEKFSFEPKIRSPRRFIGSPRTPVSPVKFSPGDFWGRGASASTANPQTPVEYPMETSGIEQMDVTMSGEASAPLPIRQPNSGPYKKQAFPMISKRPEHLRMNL
T5 sequence (P29317 24-976): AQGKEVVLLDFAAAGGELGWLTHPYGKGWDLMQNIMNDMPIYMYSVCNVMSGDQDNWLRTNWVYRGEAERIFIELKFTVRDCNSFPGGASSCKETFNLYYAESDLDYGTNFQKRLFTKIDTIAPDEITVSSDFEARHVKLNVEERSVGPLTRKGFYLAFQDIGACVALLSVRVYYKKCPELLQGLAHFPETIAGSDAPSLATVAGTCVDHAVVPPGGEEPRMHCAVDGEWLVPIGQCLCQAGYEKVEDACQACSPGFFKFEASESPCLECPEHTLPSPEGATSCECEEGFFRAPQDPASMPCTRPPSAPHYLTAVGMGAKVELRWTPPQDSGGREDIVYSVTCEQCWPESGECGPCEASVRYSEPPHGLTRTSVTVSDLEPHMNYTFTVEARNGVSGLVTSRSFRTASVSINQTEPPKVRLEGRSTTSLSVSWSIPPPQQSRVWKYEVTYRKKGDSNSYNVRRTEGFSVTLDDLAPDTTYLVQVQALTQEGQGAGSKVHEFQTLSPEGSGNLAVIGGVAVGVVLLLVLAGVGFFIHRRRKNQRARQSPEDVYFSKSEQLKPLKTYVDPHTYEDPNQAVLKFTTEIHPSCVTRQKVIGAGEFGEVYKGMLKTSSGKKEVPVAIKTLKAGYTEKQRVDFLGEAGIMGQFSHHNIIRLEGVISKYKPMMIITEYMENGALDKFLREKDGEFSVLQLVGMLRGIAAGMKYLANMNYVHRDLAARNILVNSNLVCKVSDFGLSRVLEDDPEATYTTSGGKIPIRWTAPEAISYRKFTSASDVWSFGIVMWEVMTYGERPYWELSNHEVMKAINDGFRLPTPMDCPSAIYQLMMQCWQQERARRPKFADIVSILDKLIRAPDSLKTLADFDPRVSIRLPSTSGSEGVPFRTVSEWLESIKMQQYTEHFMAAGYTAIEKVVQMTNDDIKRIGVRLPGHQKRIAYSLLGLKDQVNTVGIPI
T2 sequence (O14920 whole entry): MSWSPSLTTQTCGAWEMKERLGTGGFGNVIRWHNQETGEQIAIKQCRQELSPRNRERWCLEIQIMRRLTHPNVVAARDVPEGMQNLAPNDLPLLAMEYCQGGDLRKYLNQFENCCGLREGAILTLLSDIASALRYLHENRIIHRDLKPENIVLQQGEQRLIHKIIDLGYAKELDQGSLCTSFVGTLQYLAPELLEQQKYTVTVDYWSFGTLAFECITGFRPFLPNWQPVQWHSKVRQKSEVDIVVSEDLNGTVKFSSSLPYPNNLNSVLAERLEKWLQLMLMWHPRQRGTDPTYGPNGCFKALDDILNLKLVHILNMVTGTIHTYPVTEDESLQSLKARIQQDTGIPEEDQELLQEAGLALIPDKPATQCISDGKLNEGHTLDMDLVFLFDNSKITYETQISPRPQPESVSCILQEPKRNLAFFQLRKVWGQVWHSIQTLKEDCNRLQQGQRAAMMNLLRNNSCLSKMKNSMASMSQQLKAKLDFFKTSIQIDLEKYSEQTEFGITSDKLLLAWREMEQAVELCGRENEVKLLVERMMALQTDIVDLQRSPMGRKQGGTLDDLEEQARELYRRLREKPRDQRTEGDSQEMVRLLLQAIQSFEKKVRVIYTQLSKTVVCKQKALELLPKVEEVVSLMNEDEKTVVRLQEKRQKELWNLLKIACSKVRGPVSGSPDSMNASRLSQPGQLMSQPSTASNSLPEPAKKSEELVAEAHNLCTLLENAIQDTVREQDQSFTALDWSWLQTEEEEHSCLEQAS

inhibition at 0.2 µM (p38α): -4.1%
inhibition at 0.2 µM (IKKβ): -2.4%
inhibition at 0.2 µM (EGFR): 8.6%
inhibition at 0.2 µM (p70S6K): 7.6%
inhibition at 0.2 µM (EPHA2): 7.8%
inhibition at 0.2 µM (PKD2): 7%
mode of inhibition (ITK; ITK): time-dependent inhibitor
IC50 (ITK; ITK, 1 mM ATP, Km ATP 6.1 μM): 1.43 nM
IC50 (ITK; ITK, ATP at approximately the Km for ATP, more potent than can be measured): < 0.5 nM
IC50 (ITK; ITK, Table 2, by Carna Biosciences): 0.486 nM
Km (ITK; ITK, calculated from IC50 at 1 mM ATP, read-out: Calculated Apparent Km for BI 10N Binding): 0.00865 nM
inhibition at 0.2 µM (ITK; ITK, single inhibitor concentration): 107%
Ki (ITK; tight binding studies, read-out: K (affinity for ITK)): 0.0086 nM
SMILES: CC(C)C(C)CNCc1ccc2c(c1)[nH]/c(=N\C(=O)c1ccc(C3=CN=NC3)s1)n2CC(C)(C)O (centres unmarked) [BI 10N]
decrease in migration [1]: about 50%
decrease in migration [2]: about 50%
concentration required for smaller changes in migration [3]: ≥ 150 nM
effect on migration ([3]; 10-25 nM): do not decrease
